From patent US8506964B2, “Fusion proteins and related compositions, methods and systems for treatment and/or prevention of atherosclerosis” (priority 2010, dated 2013)

What was measured:
[1] = system: apo E −/− mice; test: Subcutaneous immunization of apo E −/− mice with peptide test articles, plaque size in en face aorta; assay type: in vivo
From the text: Inhibition of atherosclerosis in apo E −/− mice by immunization with fifteen different test articles based on fifteen different peptide fragments of apo B was investigated.
In these experiments, apo E −/− mice received primary subcutaneous immunization at 6-7 weeks of age, followed by two boosters administered […]. The mice were fed a high cholesterol diet from 1 week after the second injection (10 weeks of age) and continued until sacrifice at 25 weeks of age. The effect of immunization on atherosclerosis formation was assessed by measuring plaque size (percent area stained with Oil Red O) in an en face preparation of the aorta.
Based on the results from these and other experiments, four peptides were identified as particularly effective in reducing the progression of atherosclerosis.

[2] = system: mouse LDL; test: ELISA of sera for antibodies to mouse LDL; assay type: in vivo; settings: parenteral immunization; data not shown
Method: ELISA methods were used to quantitate serum Ig isotypes specific for the apoB-100 peptide as well as total IgG and IgM as previously described (ref. 19). Sera from immunized mice were tested for antibodies to mouse LDL by incubation (1/50, 1/150 and 1/450 dilutions) in plates coated with mouse LDL (10 μg/ml) and using alkaline phosphatase-conjugated anti-mouse-IgG as detector antibody. Sera from C57BL/6 mice immunized with OVA-CTB were assayed for reactivity to mouse or human LDL, or to apoB100, at dilutions of 1/25, 1/250 and 1/2500.

[3] = subcutaneous immunization at 6-7 weeks, boosters 3 and 5 weeks later, high cholesterol diet, plaque size (percent area Oil Red O) at 25 weeks

With “ATRFK HLRKY TYNYE AESSS (ATRFKHLRKYTYNYEAESSS; Apolipoprotein B-100; UniProt P04114 43-62, looked up, fragment) [Peptide P2]” the “Reduction in atherosclerosis progression” value [1, 3] was “(−42%, p < 0.05)”.

“IEIGL EGKGF EPTLE ALFGK (IEIGLEGKGFEPTLEALFGK) [Peptide P45]” was tested, and the “Reduction in atherosclerosis progression” value [1, 3] was “(−53%, p < 0.05)”.

With “KTTKQ SFDLS VKAQY KKNKH (KTTKQSFDLSVKAQYKKNKH) [Peptide P210]” the “Reduction in atherosclerosis progression” value [1, 3] was “(−49%, p = 0.06)”.

For SLTST SDLQS GIIKN TASLK [Peptide P102], the “Reduction in atherosclerosis progression” value ([1]; mouse, in vivo, sc) was “(−52%, p < 0.05)”.

ovalbumin was tested, and the “IgG antibody responses to mouse LDL” value [2] was “did not lead to induction of significant IgG antibody responses”.
